This is an account of results in US5922875A, “Aromatic acid diamides with antigastrin activity, a method for their preparation and their pharmaceutical use” (Rotta Research Laboratorium S.p.A., priority 1995, dated 1999).

Read-outs that look alike come from different tables or passages of the source.

One experiment concerns the target T1, central CCK-B receptor (Cavia porcellus, UniProt H0VZC5).
T1 construct: The cerebral cortices of male albino guinea pigs were therefore used; from tissue; host or cells: cerebral cortex membranes of male albino guinea pigs
T1 sequence (H0VZC5 1-426): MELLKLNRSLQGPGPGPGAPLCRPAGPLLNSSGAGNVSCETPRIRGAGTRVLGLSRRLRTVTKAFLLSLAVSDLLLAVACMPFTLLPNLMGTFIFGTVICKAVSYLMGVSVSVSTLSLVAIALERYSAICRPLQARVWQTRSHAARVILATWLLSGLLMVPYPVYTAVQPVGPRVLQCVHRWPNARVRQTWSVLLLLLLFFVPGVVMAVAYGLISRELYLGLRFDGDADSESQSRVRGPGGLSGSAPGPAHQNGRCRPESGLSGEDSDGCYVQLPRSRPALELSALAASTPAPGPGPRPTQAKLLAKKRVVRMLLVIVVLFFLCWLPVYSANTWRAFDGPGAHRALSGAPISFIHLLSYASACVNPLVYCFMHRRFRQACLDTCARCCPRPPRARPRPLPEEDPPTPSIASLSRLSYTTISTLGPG
The experiment is described as follows: Inhibition of binding of [3H][N-methyl-N-leucine]CCK-8 to guinea pig cortical membranes (anti-CCK-B in vitro). As for the experimental part:
The capacity of the compounds which are the subject of the invention to interact with the central CCK-B receptor was evaluated with the use of [3-H][N-methyl-N-leucine]CCK-8. […] The cerebral cortices of male albino guinea pigs were therefore used, the method given above being followed with slight modifications [Makovec et al.; Bioorganic & Med. Chem. Letters 3 (5)(1993), 861-866] so as to give a membrane content corresponding to about 300 mcg of protein/mL.

Experiment [1] addresses T2, type-B cholecystokynin (CCK-B) or gastrin receptors (Oryctolagus cuniculus, UniProt P46627).
T2 construct: rabbit gastric mucosa cells were prepared by conventional techniques; endogenous in cells; host or cells: freshly isolated rabbit gastric mucosa cells (collagenase/pronase digestion)
T2 sequence (P46627 1-452): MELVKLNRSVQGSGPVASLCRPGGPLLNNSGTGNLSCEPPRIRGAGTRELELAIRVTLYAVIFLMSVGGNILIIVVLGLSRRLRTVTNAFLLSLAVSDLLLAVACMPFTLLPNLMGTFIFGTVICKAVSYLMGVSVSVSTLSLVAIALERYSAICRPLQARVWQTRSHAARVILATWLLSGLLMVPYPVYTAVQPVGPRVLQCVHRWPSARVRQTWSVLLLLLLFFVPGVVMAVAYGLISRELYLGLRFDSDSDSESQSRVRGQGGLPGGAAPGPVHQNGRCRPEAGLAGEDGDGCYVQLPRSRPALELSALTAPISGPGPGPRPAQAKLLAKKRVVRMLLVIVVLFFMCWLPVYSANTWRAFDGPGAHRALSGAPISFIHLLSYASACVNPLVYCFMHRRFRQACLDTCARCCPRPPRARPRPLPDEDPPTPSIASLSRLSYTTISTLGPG
Briefly: Inhibition of the gastrin-induced increase of cytosolic calcium in rabbit gastric mucosa cells. Particulars: cells stimulated with 5×10^-8 gastrin, [Ca2+]i. It is filed as cell-based. From the text: The parietal cells of the gastric mucosa are responsible for the secretion of HCl. They present specific membrane receptors which may be activated by gastrin and which have been defined as type-B cholecystokynin (CCK-B) or gastrin receptors.
Since it has been observed that the activation of the CCK-B receptors by gastrin results in a raising of the levels of cytosolic calcium ions, a technique has been used for measuring the increase in intracellular calcium induced by gastrin in the presence and absence of the compounds which are the subject of the invention, as an index of the anti-gastrin activity of the compounds themselves.
Suspensions (0.8×10^6 /ml) of rabbit gastric mucosa cells were prepared by conventional techniques with the use of collagenase and pronase as digestive enzymes; the estimation of the [Ca^2+ ]i values, basal or achieved after stimulation of the cell system was carried out in accordance with Grynkiewicz et al [J.Biol.Chem 260 (1985), 3440]. In the control samples the cells were stimulated with […] while in the samples in which the effect of the compounds in question was evaluated, the cells were incubated therewith before stimulation with gastrin. The results are expressed as percentage increases in [Ca^2+ ]i with respect to the control value. The anti-gastrin activity of the compounds was expressed as the IC50 value, that is, the concentration (in μmoles/liter) at which the response to the stimulus induced by the gastrin was reduced by 50%. The results thus obtained for several compounds of the invention are given in Table 3 which also gives an index formed from the ratio between the peripheral anti-gastrin activity just described and the displacement activity derived from the study of binding to the cortical receptors of guinea pigs described above.

The test system of experiment [2] is acid secretion induced by pentagastrin. The experiment is described as follows: In vivo gastric anti-secretory activity in the anaesthetised rat, pentagastrin stimulation. The following applies: for ED50: iv, read-out: Activity (ID50). As for the experimental part: Gastric secretion was stimulated by pentagastrin and the method of Lai [Gut 5, (1964), 327-341] was used with slight modifications [Makovec et al, J.Med.Chem. 35 (1992), 28-38].
Pentagastrin dissolved in physiological saline was perfused for 120 minutes at a rate of 30 mcg/kg/h. After 60 minutes of perfusion (basal stimulation), the product to be tested was administered intravenously (I.V.) in bolus form, perfusion of the stimulant continuing for the remaining 60 minutes. The activity of the product was evaluated as the percentage reduction in acid secreted after the administration of the product with respect to the basal acidity measured in the first 60 minutes, during which time only pentagastrin was present.
The antagonists tested were administered at different doses in such a way as to enable the ID50 to be calculated, that is, the dose (in mg/kg I.V.) capable of inhibiting the effect of pentagastrin by 50%.

For a further experiment, the system named is CCK-B receptors. The following applies: guinea pigs, Knapp et al. 1990; cited from earlier work.
Setting [3] is: displacement of [3H][N-methyl-N-leucine]CCK-8, cortical membrane in guinea pigs, read-out: IC50.
[4] abbreviates: I.V. bolus, rat, pentagastrin perfusion.

Broadly, the IC50 is the concentration that gives 50% inhibition. With `O=C(O)CC(CC(=O)Nc1cc2ccccc2cc1C(=O)N1CCC2(CCCC2)CC1)c1cccc2ccccc12` (racemic) [Compound 13, 3-(DL)-(1-naphthyl)-5-[2'-carbamoyl(8-azaspiro[4.5]dec-8-yl)]-3'-naphthylamino]-5-oxopentanoic acid], at central CCK-B receptor (setting [3]), the IC50 is 225 nM. Besides, the IC50 in experiment [1] is 37 nM. Also, in experiment [2] (ID50 comparison, rat I.V.), the “times more powerful than CR 2194” value is recorded as 10-50 times and the “times more powerful than cimetidine” value was 2-10 times. Moreover, in experiment [2] (setting [4]), the ED50 was determined as 1 mg/kg. `O=C(O)CC[C@@H](NC(=O)c1cc(Cl)cc(Cl)c1)C(=O)N1CCC2(CCCC2)CC1` [CR 2194, reference compound]: the ED50 in experiment [2] (setting [4]) stood at 11 mg/kg. The same measure, in the same setting: for `CN/C(=N/CCSCc1nc[nH]c1C)NC#N` [Cimetidine, cimetidine, reference compound] the value was 2.5 mg/kg. With `Cc1ccc(NC(=O)CC(CC(=O)O)c2cccc3ccccc23)c(C(=O)N2CCC3(CCCC3)CC2)c1` (stereo not shown) [Compound 3], the IC50 at central CCK-B receptor (setting [3]) turned out to be 188 nM; in experiment [1] it was 30 nM.

As to `O=C(O)CC(CC(=O)Nc1c(Cl)cccc1C(=O)N1CCC2(CCCC2)CC1)c1cccc2ccccc12` (stereo not shown) [Compound 5], in experiment [2] (setting [4]), the ED50 was found to be 2.6 mg/kg. Turning to `O=C(O)CC(CC(=O)Nc1cc(Cl)ccc1C(=O)N1CCC2(CCCC2)CC1)c1cccc2ccccc12` (stereo not shown) [Compound 6], the figures for the IC50 (at central CCK-B receptor (setting [3]); in experiment [1]) were 1240 nM and 140 nM, respectively.

As for `COc1cc(NC(=O)CC(CC(=O)O)c2cccc3ccccc23)c(C(=O)N2CCC3(CCCC3)CC2)cc1OC` (stereo not shown) [Compound 10], the IC50 on central CCK-B receptor (setting [3]) is 820 nM; in experiment [1], more than 300 nM. As for `O=C(O)CCC(NC(=O)c1cccc2ccccc12)C(=O)Nc1cccc(C(=O)N2CCC3(CCCC3)CC2)c1` (stereo not shown) [Compound 12], the IC50 on central CCK-B receptor (setting [3]) is more than 1000 nM. Further, in experiment [2] (setting [4]), the ED50 was more than 10 mg/kg. On central CCK-B receptor, `O=C(O)CC(CC(=O)Nc1cc2ccccc2cc1C(=O)N1CCC2(CC1)OCCO2)c1cccc2ccccc12` (stereo not shown) [Compound 14] came in with an IC50 of 1080 nM. The ED50 in experiment [2] (Rattus norvegicus) came to 7.9 mg/kg. For `Cc1cc(C)c(NC(=O)CC(CC(=O)O)c2cccc(Cl)c2)c(C(=O)N2CCC3(CCCC3)CC2)c1` (stereo not shown) [Compound 16], the IC50 worked out at 395 nM at central CCK-B receptor (setting [3]) and 82 nM in experiment [1].

Take `CN(C(=O)CC(CC(=O)O)c1cccc2ccccc12)c1ccccc1C(=O)N1CCC2(CCCC2)CC1` (stereo not shown) [Compound 17]: at central CCK-B receptor (setting [3]), the concentration for half-maximal inhibition (IC50) was more than 1000 nM. In the case of `O=C(O)CC(CC(=O)Nc1cc2ccccc2cc1C(=O)N1CCC2(CCCCC2)CC1)c1cccc2ccccc12` (stereo not shown) [Compound 18], the IC50 at central CCK-B receptor (setting [3]) stood at 661 nM; in experiment [1] it was 105 nM. `CSCC[C@H](NC(=O)[C@H](Cc1c[nH]c2ccccc12)NC(=O)CCNC(=O)OC(C)(C)C)C(=O)N[C@@H](CC(=O)O)C(=O)N[C@@H](Cc1ccccc1)C(N)=O` [Pentagastrin, reference compound]: the IC50 on central CCK-B receptor (setting [3]) was 3 nM. Take [3-H][N-methyl-N-leucine]CCK-8: the “affinity times higher for the receptors of the cortex (CCK-B) than those of the pancreas (CCK-A)” value in the experiment with CCK-B receptors is given as “about 4000 times”.
